Where a name gives a salt, the structure may show the parent alone.
Legend:
HCT-8 cells [1] = test: Initial metabolite screen: host cell numbers; format: cell-based, human; conditions: 1 mM
C. parvum [2] = test: Initial screen of metabolites on C. parvum growth in HCT-8 cells; format: cell-based, Cryptosporidium parvum; conditions: 1 mM or 0.1 mM, 24 hpi
C. parvum [3] = test: C. parvum growth assay in HCT-8 cells: indole analog screen and dose-response; format: cell-based, Cryptosporidium parvum; conditions: for Effect on Cp infection in the indole analog screen: 1 mM, HCT-8 cells; for EC50: Cryptosporidium parvum, HCT-8, 24 h, read-out: Cp EC50
C. parvum [4] = test: Air-liquid interface; format: cell-based, Cryptosporidium parvum; conditions: for Cp growth recovery after washout / Time after washout to significant recovery in Cp growth: ALI; for Time after washout to significant recovery in Cp growth: treated at EC50 for two days; for EC50 / EC90: Cryptosporidium parvum; for EC50: read-out: Cp EC50 in ALI cultures; for EC90: read-out: Cp EC90 in ALI cultures
[5] = tested on: C. parvum-infected GKO mice; test: Metabolite treatment of C. parvum-infected GKO mice; format: in vivo, mouse; conditions: 50 mg/kg oral gavage twice daily for 7 days
Cp mitosome = test: MitoTracker staining of indole treated C. parvum; format: cell-based, Cryptosporidium parvum; conditions: indole 1.76 mM, 7CNI 1 mM, CCCP 10 μM; 2 h or 24 h
C. parvum [6] = test: Antibody and EdU labeling of C. parvum life cycle stages; format: cell-based, Cryptosporidium parvum; conditions: EC90 concentration; for Effect on Cp life cycle progression: first 24 hpi
C. parvum [7] = test: Sliding window treatment with indoles; format: cell-based, Cryptosporidium parvum; conditions: EC90 concentration
HCT-8 cells [8] = test: Transcriptomics; format: cell-based, human; conditions: 880 μM; 4 or 12 h; FDR p < 0.05, absolute fold change > 2
C. parvum [9] = test: C. parvum growth assay in HCT-8 AhR WT vs AhR KO cell lines; format: cell-based, Cryptosporidium parvum; conditions: 1 mM; 24 h
HCT-8 cells [10] = test: Seahorse metabolic assays; format: cell-based, human; conditions: 18 h; indole 0.5-2 mM, 7CNI 0.25-1 mM
[11] = tested on: HCT-8 AhR WT cells or AhR KO cells; test: Seahorse XF Cell Energy Phenotype Test on HCT-8 AhR WT and AhR KO cells; format: cell-based, human; conditions: 18 h; 0.5, 1 or 2 mM; both HCT-8 WT and AhR KO cells
C. parvum [12] = test: C. parvum growth assay with mitochondrial inhibitors; format: cell-based, Cryptosporidium parvum; conditions: read-out: Cp EC50
HCT-8 cells [13] = test: Host nuclei ratio with mitochondrial inhibitors; format: cell-based, human; conditions: 40 μM and 20 μM

SMILES: C[C@H](CCC(=O)O)[C@H]1CC[C@H]2[C@@H]3CC[C@@H]4C[C@H](O)CC[C@]4(C)[C@H]3C[C@H](O)[C@]12C [Deoxycholate, sodium deoxycholate]
- Host toxicity in the initial screen (HCT-8 cells [1]): significant host toxicity at 1 mM
- Effect on Cp growth in the primary metabolite screen (C. parvum [2]): significantly inhibited Cp growth

SMILES: Cc1c[nH]c2ccccc12 [3-methylindole]
- Effect on Cp infection in the indole analog screen (C. parvum [3]): did inhibit Cp

SMILES: CCCCC[C@H](O)/C=C/[C@H]1[C@H](O)CC(=O)[C@@H]1C/C=C\CCCC(=O)O [Prostaglandin E2]
- Host toxicity in the initial screen (HCT-8 cells [1]): significant host toxicity at 1 mM

SMILES: Oc1cccc2[nH]ccc12 [4-Hydroxyindole]
- EC50 (C. parvum [3]): 1260 µM
- Effect on Cp growth in the primary metabolite screen (C. parvum [2]): significantly inhibited Cp growth

SMILES: Cc1ncc(CO)c(C=O)c1O [Pyridoxal hydrochloride]
- EC50 (C. parvum [3]): 213 µM
- Fold Selectivity (HCT-8 EC50 divided by Cp EC50) (C. parvum [3]; host value from nuclei count): 44.6 fold
- Effect on Cp growth in the primary metabolite screen (C. parvum [2]): significantly inhibited Cp growth

SMILES: NC(=O)Cc1c[nH]c2ccccc12 [Indole-3-acetamide]
- Effect on Cp infection in the indole analog screen (C. parvum [3]): exceptions

SMILES: O=C(O)CCc1c[nH]c2ccccc12 [Indole-3-propionic acid]
- Effect on Cp infection in the indole analog screen (C. parvum [3]): did inhibit Cp

SMILES: O=C(O)C(O)Cc1c[nH]c2ccccc12 (stereo not drawn) [indole-3-lactic acid]
- Effect on Cp infection in the indole analog screen (C. parvum [3]): exceptions

SMILES: O=C(O)Cc1c[nH]c2ccc(O)cc12 [5-Hydroxyindole-3-acetic acid]
- Effect on Cp growth in the primary metabolite screen (C. parvum [2]): no effect on Cp

SMILES: c1ccc2[nH]ccc2c1 [Indole]
- Cp growth recovery after washout (C. parvum [4]; treated at 2 × EC90 for two days): no recovery was observed
- Time after washout to significant recovery in Cp growth (C. parvum [4]): 2 days
- Cp growth recovery after washout (C. parvum [4]; treated at EC90 for two days): Some growth recovery (though not significant)
- EC50 (C. parvum [4]): 577 µM
- EC90 (C. parvum [4]): 1890 µM
- Cp oocysts shed in the feces [5]: no significant effect on Cp infection in vivo
- Median survival time [5]: 17 dpi
- MitoTracker staining of Cp mitosomes (Cp mitosome): significantly decreased MitoTracker staining of Cp mitosomes
- Morphology of mature merozoites (C. parvum [6]; 22 h, 1E12 labeling): did not observe any obvious morphological defects in mature merozoites
- Effect on Cp life cycle progression (C. parvum [6]): delayed progression through sequential life cycle stages
- Effect on Cp growth, treatment 0–4 hpi only (C. parvum [7]): neither indole nor 7CNI inhibited Cp growth
- Effect on Cp infection, treatment started 4 hpi (4–24 hpi) (C. parvum [7]): significantly inhibited Cp infection
- Effect on Cp infection of pre-treatment of host cells (C. parvum [7]; 20 h before infection): did not affect subsequent Cp infection
- Downregulated genes (HCT-8 cells [8]): 11 genes
- Genes significantly differentially expressed after treatment (HCT-8 cells [8]): 68 genes
- Upregulated genes (HCT-8 cells [8]): 57 genes
- Cp sensitivity to inhibition in AhR KO cells (C. parvum [9]): remained sensitive
- EC50 (C. parvum [3]): 411 µM
- ATP production rate by glycolysis (HCT-8 cells [10]): remained similar between all treatments
- ATP production rate by the mitochondria (HCT-8 cells [10]): significant reduction in ATP production rate by the mitochondria
- Basal and maximal levels of mitochondrial respiration (OCR) (HCT-8 cells [10]): significantly reduced both basal levels and maximal levels of mitochondrial respiration
- Spare respiratory capacity (HCT-8 cells [10]): diminished
- Total ATP production rate (HCT-8 cells [10]): lower total ATP production rate
- Mitochondrial basal and stressed respiratory rate [11]: significantly impaired in a dose-dependent manner
- Effect on Cp growth in the primary metabolite screen (C. parvum [2]): significantly inhibited Cp growth

SMILES: CC[C@H]1/C=C/C=C/C[C@@H](C)[C@H](O)[C@@](C)(O)C(=O)[C@@H](C)[C@H](O)[C@@H](C)C(=O)[C@@H](C)[C@H](O)[C@@H](C)/C=C/C(=O)O[C@@H]2[C@H](C)[C@H](CC1)O[C@]1(CC[C@H](C)[C@H](C[C@@H](C)O)O1)[C@H]2C [oligomycin]
- EC50 (C. parvum [12]; Cryptosporidium parvum, HCT-8, 24 h): 20.6 µM

SMILES: N#CC(C#N)=NNc1cccc(Cl)c1 [CCCP, carbonyl cyanide m-chlorophenyl hydrazone]
- EC50 (C. parvum [12]; HCT-8 cells, 24 h): 5 µM
- Host toxicity (HCT-8 cells [13]): observed host toxicity
- MitoTracker staining of Cp mitosomes (Cp mitosome): decreases MitoTracker staining in the Cp mitosome

SMILES: C[C@H](CCC(=O)O)[C@H]1CC[C@H]2[C@@H]3CC[C@@H]4C[C@H](O)CC[C@]4(C)[C@H]3C[C@H](O)[C@]12C [Deoxycholic acid]
- Host toxicity in the initial screen (HCT-8 cells [1]): significant host toxicity at 1 mM
- Effect on Cp growth in the primary metabolite screen (C. parvum [2]): significantly inhibited Cp growth

SMILES: N#Cc1cccc2cc[nH]c12 [7-cyanoindole]
- Time after washout to significant recovery in Cp growth (C. parvum [4]): 4 days
- EC50 (C. parvum [4]): 379 µM
- EC90 (C. parvum [4]): 688 µM
- Body weight [5]: weighed significantly more than vehicle- or indole-treated mice 5 and 7 dpi
- Survival rate [5]: did not significantly increase survival rate
- MitoTracker staining of Cp mitosomes (Cp mitosome): significantly decreased MitoTracker staining of Cp mitosomes
- Effect on Cp life cycle progression (C. parvum [6]): delayed progression through sequential life cycle stages
- Effect on Cp growth, treatment 0–4 hpi only (C. parvum [7]): neither indole nor 7CNI inhibited Cp growth
- Effect on Cp infection, treatment started 4 hpi (4–24 hpi) (C. parvum [7]): significantly inhibited Cp infection
- ATP production rate by glycolysis (HCT-8 cells [10]): remained similar between all treatments
- ATP production rate by the mitochondria (HCT-8 cells [10]): significant reduction in ATP production rate by the mitochondria

SMILES: C[C@H](CCC(=O)O)[C@H]1CC[C@H]2[C@@H]3CC[C@@H]4C[C@H](O)CC[C@]4(C)[C@H]3CC[C@]12C [Lithocholic acid]
- Host toxicity in the initial screen (HCT-8 cells [1]): significant host toxicity at 1 mM
- Effect on Cp growth in the primary metabolite screen (C. parvum [2]): significantly inhibited Cp growth

From article PMC10530208 (Cell reports, 2023)
